We go through six compounds from publication PMC10692381 (Acta Pharmaceutica Sinica. B, 2023).

The experiment has as its target PRMT3 (Homo sapiens, UniProt O60678). As to the kind of experiment: Fluorescence-based SAHH-coupled PRMT3 methylation assay. In kind it is biochemical.

PRMT3, sequence (O60678 211-531): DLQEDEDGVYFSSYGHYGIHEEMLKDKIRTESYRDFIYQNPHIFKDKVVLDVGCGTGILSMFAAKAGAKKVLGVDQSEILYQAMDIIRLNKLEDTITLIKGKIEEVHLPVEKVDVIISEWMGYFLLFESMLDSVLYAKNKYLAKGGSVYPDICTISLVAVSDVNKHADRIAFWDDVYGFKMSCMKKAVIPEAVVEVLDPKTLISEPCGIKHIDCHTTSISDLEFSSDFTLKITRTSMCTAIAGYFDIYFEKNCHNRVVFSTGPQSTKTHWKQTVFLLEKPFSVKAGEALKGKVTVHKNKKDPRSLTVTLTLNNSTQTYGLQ

Take `Nc1ncnc2c1ncn2[C@@H]1O[C@H](CSCCNC(=O)NCc2ccccc2)[C@@H](O)[C@H]1O` [Compound 1c]: for the setting “compared to 1b (linker 3C to 2C)”, the “fold increased inhibition for PRMT3” value worked out at 140 fold.
As for `Nc1ncnc2c1ncn2[C@@H]1O[C@H](CSCCNC(=O)NCc2ccc(F)cc2)[C@@H](O)[C@H]1O` [Compound 1e], the “fold reduction in PRMT3 inhibition” value (compared to YD1113) was “over 10 fold”.
Consider `Nc1ncnc2c1ncn2[C@@H]1O[C@H](CSCCNC(=O)Nc2ccccc2)[C@@H](O)[C@H]1O` [Compound 1h], for which, for the setting “compared to YD1113”, the “fold reduction in PRMT3 inhibition” value is 4 fold.
On the same count and under the same terms, the figure for `Nc1ncnc2c1ncn2[C@@H]1O[C@H](CSCCNC(=O)Nc2ccc(F)cc2)[C@@H](O)[C@H]1O` [Compound 1i] is 4 fold.
Take `Nc1ncnc2c1ncn2[C@@H]1O[C@H](CSCCNC(=O)Nc2ccc(Cl)cc2)[C@@H](O)[C@H]1O` [Compound 1j]: for the setting “compared to 1i”, the “fold reduction in PRMT3 inhibition” value was determined as 10 fold.
Take `Nc1ncnc2c1ncn2[C@@H]1O[C@H](CSCCNC(=O)Nc2cccc3ccccc23)[C@@H](O)[C@H]1O` [Compound 1k]: the “fold reduction in PRMT3 inhibition” value (compared to phenyl (1h)) is recorded as “over 40 fold”.
